How the values were obtained:
M. intracellulare = experiment: In vitro activity against serovars of M. intracellulare, radiometric (Bactec) method; format: cell-based; conditions: comparison with CQQ; no data shown
Protocol: A study of the effect of CQQ on different serovars of M. intracellulare in vitro was performed using the radiometric (Bactec) method. Maximum growth index (GI) of 999 was determined (for control models) in terms of the number of days necessary for the culture to reach this stage. GI is measured using the special instrument which reads the amount of ^14 C labelled CO2 liberated from the strains using the ^14 C labelled substrates.

Mycobacterium leprae = experiment: Inhibitory activity against Mycobacterium leprae in the macrophage model (3H thymidine uptake); format: cell-based, M. leprae (in human monocyte derived macrophages)
From the text: The effect of CQQ on Mycobacterium leprae, the causative agent for leprosy, was studied using monocyte derived macrophages obtained from human volunteers.
Blood from a healthy volunteer was drawn and monocytes were removed and cultured to the macrophage stage. This required about 7 days. The macrophages were then exposed to M. leprae bacilli obtained from biopsy specimens of leprosy patients. One sample was exposed to CQQ, while other samples were exposed to DDS (diaminodiphenyl sulphone), the standard antileprosy drug, or rifampin, at various concentrations. Macrophages were exposed to radiolabelled tritium (^3 H) labeled thymidine, and its uptake was measured using a liquid scintillation counter. A control model of M. leprae exposed macrophages, which was not treated was used as well. The uptake of thymidine is a measure of antimycobacterial activity.

| SMILES | Effectiveness on M. intracellulare strains (M. intracellulare) | Counts per minute (3H thymidine uptake) (Mycobacterium leprae; Sample I, 3 NG/ML) [COUNTS PER MINUTE] | Counts per minute (3H thymidine uptake) (Mycobacterium leprae; Sample II, 3 NG/ML) [COUNTS PER MINUTE] | Counts per minute (3H thymidine uptake) (Mycobacterium leprae; Sample III, 3 NG/ML) [COUNTS PER MINUTE] | Counts per minute (3H thymidine uptake) (Mycobacterium leprae; Sample I, 10 NG/ML) [COUNTS PER MINUTE] | Counts per minute (3H thymidine uptake) (Mycobacterium leprae; Sample II, DDS 10 NG/ML) [COUNTS PER MINUTE] | Counts per minute (3H thymidine uptake) (Mycobacterium leprae; Sample III, DDS 10 NG/ML) [COUNTS PER MINUTE] |
| --- | --- | --- | --- | --- | --- | --- | --- |
| CO[C@H]1/C=C/O[C@@]2(C)Oc3c(C)c(O)c4c(O)c(c(/C=N/N5CCN(C)CC5)c(O)c4c3C2=O)NC(=O)/C(C)=C\C=C\[C@H](C)[C@H](O)[C@@H](C)[C@@H](O)[C@@H](C)[C@H](OC(C)=O)[C@@H]1C [rifampin, reference compound] | only effective on a few strains | 82 | 80 | 82 | – | – | – |
| Nc1ccc(S(=O)(=O)c2ccc(N)cc2)cc1 [DDS, diaminodiphenyl sulphone, reference compound] | – | – | – | – | 84 | 78 | 84 |

Reference: US4963565A, “In vivo treatment of mycobacterial infections with 6-cyclo octylamino-5,8-quinoline quinone” (priority 1986, dated 1990)
